Reference: patent US20020169111A1, “Reversal of multidrug resistance in human colon carcinoma cells” (American Cyanamid Comany, priority 1998, published 2002)

Tested on: S1-M1-3.2 cells
Settings: for Toxicity (>20%): compound alone, concentration that causes greater than 20% cell death of S1-M1-3.2 cells; for IC50: read-out: IC50 (μM), resensitizing S1-M1-3.2 cells to mitoxantrone, with 3.2 μM mitoxantrone, 50% cancer cell death
Protocol: One of the first reported molecules with reversing activity was verapamil, a calcium channel blocker. […] Cells were plated into 96-well dishes (100 μl/well) in growth medium supplemented with 5% FBS. […] Reversal agents were tested from 0.1-80 μM (triplicate points per dose). In parallel wells, cells were grown in the presence of the reversal agent alone.
The Difference Score is the difference in the percentage of cells surviving when the drug was given alone minus the percentage of cells surviving when the drug was given along with the antitumor agent.
Cell survival was estimated using the Sulforhodamine (SRB) assay.

SMILES	Toxicity (>20%) [µM]	IC50 [µM]
NCCC[C@@H]1c2[nH]c3ccccc3c2C[C@H]2C(=O)N3CCC[C@H]3C(=O)N12 [Example 29a, (5aS,12R,14aS)-12-(3-aminopropyl)-1,2,3,5a,6,11,12,14a-octahydro-5H,14H-pyrrolo[1″,2″:4′,5′]pyrazino[2′,1′:6,1]pyrido[3,4-b]indole-5,14-dione]	>80	20
NCCC[C@H]1c2[nH]c3ccccc3c2C[C@H]2C(=O)N3CCC[C@H]3C(=O)N21 [Example 29b, (5aS,12S,14aS)-12-(3-aminopropyl)-1,2,3,5a,6,11,12,14a-octahydro-5H,14H-pyrrolo[1″,2″:4′,5′]pyrazino[2′,1′:6,1]pyrido[3,4-b]indole-5,14-dione]	>80	> 80
CC(=O)NCCC[C@H]1c2[nH]c3ccccc3c2C[C@H]2C(=O)N3CCC[C@H]3C(=O)N21 [Example 30, N-{3-[(5aS,12S,14aS)-5,14-dioxo-2,3,5a,6,11,12,14,14a-octahydro-1H,5H-pyrrolo[1″,2″:4′,5′]pyrazino[2′,1′:6,1]pyrido[3,4-b]indol-12-yl]propyl}Acetamide]	>80	> 80
CCCC(=O)NCCC[C@H]1c2[nH]c3ccccc3c2C[C@H]2C(=O)N3CCC[C@H]3C(=O)N21 [Example 31, N-{3-[(5aS,12S,14aS)-5,14-dioxo-2,3,5a,6,11,12,14,14a-octahydro-1H,5H-pyrrolo[1″,2″:4′,5′]pyrazino[2′,1′:6,1]pyrido[3,4-b]indol-12-yl]propyl}Butanamide]	>80	65
O=C(O)CCC(=O)NCCC[C@H]1c2[nH]c3ccccc3c2C[C@H]2C(=O)N3CCC[C@H]3C(=O)N21 [Example 32, 4-({3-[(5aS,12S,14aS)-5,14-dioxo-2,3,5a,6,11,12,14,14a-octahydro-1H,5H-pyrrolo[1″,2″:4′,5′]pyrazino[2′,1′:6,1]pyrido[3,4-b]indol-12-yl]propyl}amino)-4-oxobutanoic acid]	>80	> 80
O=C(NCCC[C@H]1c2[nH]c3ccccc3c2C[C@H]2C(=O)N3CCC[C@H]3C(=O)N21)[C@@H]1CCCN1 [Example 33, (2S)-N-{3-[(5aS,12S,14aS)-5,14-dioxo-2,3,5a,6,11,12,14,14a-octahydro-1H,5H-pyrrolo[1″,2″:4′,5′]pyrazino[2′,1′:6,1]pyrido[3,4-b]indol-12-yl]propyl}pyrrolidine-2-carboxamide]	>80	> 80
COc1ccc2c3c(n(CC=C(C)C)c2c1)[C@H](C=C(C)C)N1C(=O)[C@@H]2CCCN2C(=O)[C@@H]1C3 [Example 34]	2.0	1
